From US9040532B2, “Alpha adrenergic receptor modulators” (Allergan, Inc., priority 2009, dated 2015)
Where two headings read alike, the source gives them in different places.

Columns and labels:
[1] = system: Intraoccular Pressure (IOP); experiment: In-vivo intraocular pressure compound screening; details: normotensive male Dutch-Belted rabbits, single 50 μl topical drop, 0.15% or 1.0%; for IOP lowering: IOP 0.5-8 h vs 0 h baseline
Description: The experimental animals used, were Normotensive male Dutch-Belted rabbits over 6 months in age (n=4/compound/dose screened). A single drop (50 μl) of the drug formulation, which yields 0.15% or 1.0% of the active metabolite was administered topically by pipette onto the right eye (treated eye) at approximately 0700 hours. Intraoccular Pressure (IOP) of the rabbits (treated and untreated eyes) was measured 0 hours before and at 0.5, 1, 2, 3, 4, 6 and 8 hours after topical eyedrop administration. IOP at the time of eyedrop administration (0 hours) was used as a baseline value. Prior to the tonometric measurements, 0.05% proparacaine (50 μl) was administered to each eye. Tonometric IOP measurements were obtained with a Mentor Pneumontonmeter. Additionally, all studies were masked. At least 1 week of wash-out time was allowed for each rabbit between dosings. All animals were examined for sedation, ocular irritation, and changes in pupil diameter throughout the course of the experiments. […] In this assay, Compound 10 lowered IOP about 35%.

[2] = biological target: T1, Alpha 2A (Homo sapiens, UniProt P08913); experiment: FLIPR assay, intracellular Ca2+ mobilization, alpha 2A; assay type: cell-based; details: for EC50: agonist, read-out: Alpha 2A Potency (EC50); for Alpha 2A relative efficacy compared to a standard full agonist: value in parentheses
T1 sequence (P08913 1-465): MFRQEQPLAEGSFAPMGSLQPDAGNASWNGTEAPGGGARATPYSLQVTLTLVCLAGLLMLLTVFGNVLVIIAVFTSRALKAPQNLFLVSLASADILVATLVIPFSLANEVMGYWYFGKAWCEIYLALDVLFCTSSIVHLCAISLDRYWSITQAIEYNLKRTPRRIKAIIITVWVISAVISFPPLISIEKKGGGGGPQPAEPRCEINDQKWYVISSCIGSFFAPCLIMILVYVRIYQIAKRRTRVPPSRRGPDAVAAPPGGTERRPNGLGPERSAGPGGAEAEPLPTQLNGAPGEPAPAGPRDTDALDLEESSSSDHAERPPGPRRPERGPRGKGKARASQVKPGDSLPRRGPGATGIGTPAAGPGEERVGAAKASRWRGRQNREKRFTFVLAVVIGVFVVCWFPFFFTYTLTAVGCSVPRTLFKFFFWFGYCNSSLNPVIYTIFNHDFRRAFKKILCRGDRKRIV
Description: The compounds described herein were tested for alpha adrenergic activity using a Fluorometric Imaging plate Reader (FLIPR) assay (Princen et al., 2003, Cytometry Part A. 51, pp. 35-45). Cells are loaded into a plate reader with a Ca^2+ dye indicator and incubated with various compounds. This assay is adequate for monitoring the intracellular Ca^2+ mobilization from fluorescent readings to evaluate receptor agonists. […] The compounds described herein activate alpha adrenergic receptors.

[3] = biological target: T2, Alpha 2B (Homo sapiens, UniProt P18089); experiment: FLIPR assay, intracellular Ca2+ mobilization, alpha 2B; assay type: cell-based; details: FLIPR; for EC50: agonist, read-out: Alpha 2B Potency (EC50); for Alpha 2B relative efficacy compared to a standard full agonist: value in parentheses
T2 sequence (P18089 1-450): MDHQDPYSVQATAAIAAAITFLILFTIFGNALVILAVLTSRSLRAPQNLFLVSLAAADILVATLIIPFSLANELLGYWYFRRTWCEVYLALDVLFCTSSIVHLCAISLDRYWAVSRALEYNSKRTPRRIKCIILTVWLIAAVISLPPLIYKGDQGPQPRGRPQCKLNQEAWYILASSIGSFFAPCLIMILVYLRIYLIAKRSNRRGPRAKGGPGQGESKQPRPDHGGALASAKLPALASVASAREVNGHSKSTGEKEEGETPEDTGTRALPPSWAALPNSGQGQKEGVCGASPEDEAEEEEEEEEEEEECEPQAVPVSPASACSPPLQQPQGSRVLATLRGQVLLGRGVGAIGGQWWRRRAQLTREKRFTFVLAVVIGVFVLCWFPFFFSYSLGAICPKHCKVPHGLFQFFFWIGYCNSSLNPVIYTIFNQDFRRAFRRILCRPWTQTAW
Description: (§1) Cells are loaded into a plate reader with a Ca^2+ dye indicator and incubated with various compounds. This assay is adequate for monitoring the intracellular Ca^2+ mobilization from fluorescent readings to evaluate receptor agonists.

[4] = biological target: T3, Alpha 2C (Homo sapiens, UniProt P18825); experiment: FLIPR assay, intracellular Ca2+ mobilization, alpha 2C; assay type: cell-based; details: for EC50: agonist, read-out: Alpha 2C Potency (EC50); for Alpha 2C relative efficacy compared to a standard full agonist: value in parentheses
T3 sequence (P18825 1-462): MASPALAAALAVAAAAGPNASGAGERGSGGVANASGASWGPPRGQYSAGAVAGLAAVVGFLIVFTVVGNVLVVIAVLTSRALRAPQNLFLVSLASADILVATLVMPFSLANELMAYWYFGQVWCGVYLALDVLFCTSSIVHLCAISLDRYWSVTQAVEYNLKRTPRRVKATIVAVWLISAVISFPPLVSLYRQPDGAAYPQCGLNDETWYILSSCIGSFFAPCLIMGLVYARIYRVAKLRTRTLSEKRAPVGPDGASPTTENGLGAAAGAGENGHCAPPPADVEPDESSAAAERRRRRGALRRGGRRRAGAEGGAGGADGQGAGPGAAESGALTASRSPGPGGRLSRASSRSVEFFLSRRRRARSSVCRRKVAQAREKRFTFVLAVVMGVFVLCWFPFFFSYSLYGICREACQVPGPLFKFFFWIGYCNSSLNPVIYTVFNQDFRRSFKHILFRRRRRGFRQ
Description: as §1

[5] = biological target: Alpha 2B (Homo sapiens, UniProt P18089); experiment: FLIPR assay, intracellular Ca2+ mobilization, alpha 2B; assay type: cell-based
Description: as §1

SMILES: Cc1c(NC2=NCCC2)ccc2cccnc12 [Compound 29, N-(3,4-Dihydro-2H-pyrrol-5-yl)-8-methylquinolin-7-amine]
- IOP lowering [1]: show potential in lowering IOP
- EC50 [2]: 6 nM
- Alpha 2A relative efficacy compared to a standard full agonist [2]: (0.98)
- EC50 [3]: 80 nM
- Alpha 2B relative efficacy compared to a standard full agonist [3]: (0.2)
- EC50 [4]: < 1 nM
- Alpha 2C relative efficacy compared to a standard full agonist [4]: (1)

SMILES: Cc1ccc2ccccc2c1NC1=NCCC1 [Compound 2, N-(2-Methyl-1-naphthyl)-3,4-dihydro-2H-pyrrol-5-amine]
- EC50 [2]: 733 nM
- Alpha 2A relative efficacy compared to a standard full agonist [2]: (0.61)
- EC50 [3]: 145 nM
- Alpha 2B relative efficacy compared to a standard full agonist [3]: (0.18)
- EC50 [4]: 368 nM
- Alpha 2C relative efficacy compared to a standard full agonist [4]: (0.85)

SMILES: c1cc2c(cc1NC1=NCCC1)CCCC2
- EC50 [5]: 293 nM

SMILES: c1cc2cc(/N=C3\CCCN3)cnc2[nH]1 [Compound 26, N-[(2E)-Pyrrolidin-2-ylidene]-1H-pyrrolo[2,3-b]pyridin-5-amine]
- EC50 [2]: 118 nM
- Alpha 2A relative efficacy compared to a standard full agonist [2]: (0.85)
- EC50 [3]: 17 nM
- Alpha 2B relative efficacy compared to a standard full agonist [3]: (0.96)
- EC50 [4]: 6 nM
- Alpha 2C relative efficacy compared to a standard full agonist [4]: (0.97)

SMILES: Cc1c(NC2=NCCC2)ccc2c1NCCO2 [Compound 36, N-(3,4-Dihydro-2H-pyrrol-5-yl)-5-methyl-3,4-dihydro-2H-1,4-benzoxazin-6-amine]
- EC50 [2]: 583 nM
- Alpha 2A relative efficacy compared to a standard full agonist [2]: (0.68)
- EC50 [3]: 579 nM
- Alpha 2B relative efficacy compared to a standard full agonist [3]: (0.77)
- EC50 [4]: 327 nM
- Alpha 2C relative efficacy compared to a standard full agonist [4]: (0.87)

SMILES: Brc1c(NC2=NCCC2)ccc2[nH]cnc12 [Compound 10, 4-Bromo-N-(3,4-dihydro-2H-pyrrol-5-yl)-1H-benzimidazol-5-amine]
- IOP lowering [1]: show potential in lowering IOP
- IOP lowered ([1]; vs 0 h baseline): about 35%
- EC50 [2]: 3 nM
- Alpha 2A relative efficacy compared to a standard full agonist [2]: (1)
- EC50 [3]: 90 nM
- Alpha 2B relative efficacy compared to a standard full agonist [3]: (0.76)
- EC50 [4]: 1.5 nM
- Alpha 2C relative efficacy compared to a standard full agonist [4]: (0.94)

SMILES: Cc1cccc2c1CC[C@@H]2NC1=NCCC1 [Compound 37, N-[(1S)-4-Methyl-2,3-dihydro-1H-inden-1-yl]-3,4-dihydro-2H-pyrrol-5-amine]
- EC50 [2]: 272 nM
- Alpha 2A relative efficacy compared to a standard full agonist [2]: (0.43)
- EC50 [3]: 21 nM
- Alpha 2B relative efficacy compared to a standard full agonist [3]: (0.9)
- EC50 [4]: 58 nM
- Alpha 2C relative efficacy compared to a standard full agonist [4]: (0.94)

SMILES: Clc1c(NC2=NCCC2)ccc2[nH]cnc12 [Compound 11, 4-Chloro-N-(3,4-dihydro-2H-pyrrol-5-yl)-1H-benzimidazol-5-amine]
- IOP lowering [1]: show potential in lowering IOP
- EC50 [2]: 216 nM
- Alpha 2A relative efficacy compared to a standard full agonist [2]: (0.98)
- EC50 [3]: 513 nM
- Alpha 2B relative efficacy compared to a standard full agonist [3]: (0.69)
- EC50 [4]: 35 nM
- Alpha 2C relative efficacy compared to a standard full agonist [4]: (1)

SMILES: Cc1c(NC2=NCCC2)ccc2[nH]cnc12 [Compound 12, N-(3,4-dihydro-2H-pyrrol-5-yl)-4-methyl-1H-benzimidazol-5-amine]
- IOP lowering [1]: show potential in lowering IOP
- EC50 [2]: 203 nM
- Alpha 2A relative efficacy compared to a standard full agonist [2]: (1)
- EC50 [3]: 510 nM
- Alpha 2B relative efficacy compared to a standard full agonist [3]: (0.86)
- EC50 [4]: 58 nM
- Alpha 2C relative efficacy compared to a standard full agonist [4]: (1)

SMILES: Brc1c(NC2=NCCC2)ccc2scnc12 [Compound 31, 4-Bromo-N-(3,4-dihydro-2H-pyrrol-5-yl)-1,3-benzothiazol-5-amine]
- EC50 [2]: 96 nM
- Alpha 2A relative efficacy compared to a standard full agonist [2]: (.98)
- EC50 [3]: 117 nM
- Alpha 2B relative efficacy compared to a standard full agonist [3]: (.76)
- EC50 [4]: 25 nM
- Alpha 2C relative efficacy compared to a standard full agonist [4]: (.92)

SMILES: Clc1c(NC2=NCCC2)ccc2cccnc12 [Compound 9, 8-Chloro-N-(3,4-dihydro-2H-pyrrol-5-yl)quinolin-7-amine]
- IOP lowering [1]: show potential in lowering IOP
- EC50 [2]: 429 nM
- Alpha 2A relative efficacy compared to a standard full agonist [2]: (1)
- EC50 [3]: 1050 nM
- Alpha 2B relative efficacy compared to a standard full agonist [3]: (0.38)
- EC50 [4]: 218 nM
- Alpha 2C relative efficacy compared to a standard full agonist [4]: (0.97)

SMILES: Cc1c(NC2=NCCC2)ccc2nccnc12 [Compound 27, N-(3,4-Dihydro-2H-pyrrol-5-yl)-5-methylquinoxalin-6-amine]
- IOP lowering [1]: show potential in lowering IOP
- EC50 [2]: 121 nM
- Alpha 2A relative efficacy compared to a standard full agonist [2]: (0.89)
- EC50 [4]: 16 nM
- Alpha 2C relative efficacy compared to a standard full agonist [4]: (0.9)
